Data taken from patent US10501479B2, “Benzenesulfonyl-asymmetric ureas and medical uses thereof” (HELSINN HEALTHCARE SA, priority 2016, dated 2019).
“And” between values parts separate entries of the source, which are not always exact repeats. Equal values may be shown once. Read-outs that look alike come from different tables or passages of the source.

Experiments:
[1] = Plasma protein binding (PPB), mouse; assay type: in vitro ADME
[2] = Plasma protein binding (PPB), human; assay type: in vitro ADME; settings: read-out: PPB (H) (converted)
[3] = biological target: T1, GHSR-1a (HEK293/GHSR1a cell line) (Homo sapiens, UniProt Q92847); assay: Ghrelin agonist potency (EC50) with calcium FLIPR assay; assay type: cell-based
T1 construct: expressed in transfected cells; host or cells: HEK293/GHSR1a cell line
Procedure, shortened: (§1)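 Potency values were estimated from dose-response curves of relative fluorescence, with calcium followed for 2 minutes after additions at t=20 sec. Agonism was tested with compound alone. Antagonism was tested with compound plus 10 nM ghrelin and scored as a reduction of the ghrelin signal.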

[4] = biological target: T2, recombinant human ghrelin receptor (HEK293/GRLN) (Homo sapiens, UniProt Q92847); assay: Ghrelin inverse agonist potency (EC50) with IP-1 (IP-One HTRF) assay; assay type: cell-based; settings: IP-1 assay
T2 construct: expressed in transfected cells
Procedure, shortened: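 HEK293/GRLN cells were seeded 18-22 hours before the test, then exposed to compound in stimulation buffer for 1 hour at 37° C, 5% CO2. IP-1 was detected by IP-One HTRF (IP1-d2 plus Tb-cryptate, 1 hour RT), reading 620 and 665 nm; the inverse agonist EC50 was derived from this.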

[5] = Plasma protein binding (PPB), dog; assay type: in vitro ADME; settings: read-out: PPB (D) (converted)
[6] = Animal PK study in mouse via i.v., p.o. and s.c. administration; assay type: in vivo; settings: for Vd / clearance / half-life: plasma; for clearance: read-out: PK CL i.v.
Procedure, shortened: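 Single i.v. (tail vein), s.c. (neck scruff) or p.o. (gavage) dose to mice or rats; oral vehicle 1–5% DMSO/0.5% methylcellulose, i.v./s.c. vehicle 1–5% DMSO in 20% HP-β-cyclodextrin. Plasma sampled 0.083 (i.v./s.c.) or 0.25 to 24 h, analyzed by LC-MS/MS.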

[7] = Metabolic stability in mouse liver microsomes; assay type: in vitro ADME
Procedure, shortened: (§2)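 Depletion of test compound in NADPH-fortified liver microsomes (pH 7.4 phosphate buffer, 37 °C) is followed over 90 min. Remaining compound in quenched samples is quantified by LC-MS/MS against the time-zero level.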

[8] = Metabolic stability in human liver microsomes; assay type: in vitro ADME
Procedure, shortened: as §2

[9] = Plasma protein binding (PPB), rat; assay type: in vitro ADME; settings: read-out: PPB (R)
[10] = biological target: T1, GHSR-1a (HEK293/GHSR1a cell line); assay: Ghrelin antagonist potency (IC50) with calcium FLIPR assay, ghrelin 10 nM; assay type: cell-based
Procedure, shortened: as §1

[11] = Metabolic stability in rat liver microsomes; assay type: in vitro ADME
Procedure, shortened: as §2

[12] = Animal PK study in rat via i.v., p.o. and s.c. administration; assay type: in vivo; settings: rat
[13] = Metabolic stability in dog liver microsomes; assay type: in vitro ADME
Procedure, shortened: as §2

[14] = Plasma protein binding (PPB), rat (R); assay type: in vitro ADME
[15] = Plasma protein binding (PPB), human (H); assay type: in vitro ADME
[16] = HEK293/GHSR1a, read-out: Activity EC50/EMax: EC50 (ghrelin agonist potency)
[17] = HEK293/GRLN, read-out: Activity EC50 (ghrelin inverse agonist potency)
[18] = iv, 5 mg/kg, i.v., read-out: PK t1/2 i.v.
[19] = po, 10 mg/kg, p.o., read-out: PK t1/2 p.o.
[20] = ghrelin agonist potency, read-out: Activity EC50/EMax
[21] = ghrelin inverse agonist potency, read-out: Activity EC50
[22] = ghrelin antagonist potency, read-out: Activity IC50

T2 sequence (Q92847 whole entry): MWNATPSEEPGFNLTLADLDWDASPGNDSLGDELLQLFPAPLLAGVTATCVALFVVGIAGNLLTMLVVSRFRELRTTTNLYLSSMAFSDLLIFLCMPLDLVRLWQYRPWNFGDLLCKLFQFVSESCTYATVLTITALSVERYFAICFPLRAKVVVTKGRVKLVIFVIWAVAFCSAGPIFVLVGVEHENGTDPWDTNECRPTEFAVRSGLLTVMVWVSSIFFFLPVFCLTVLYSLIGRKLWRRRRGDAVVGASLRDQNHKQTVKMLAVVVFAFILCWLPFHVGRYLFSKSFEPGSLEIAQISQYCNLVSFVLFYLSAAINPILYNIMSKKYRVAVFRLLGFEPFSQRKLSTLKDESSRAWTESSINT
T1 sequence (Q92847 whole entry): as above

With `CC(NC(=O)Nc1ccc(S(=O)(=O)Nc2ccc3c(c2)CCN(C)C3)cc1)c1cccc(Cl)c1Cl` (stereo not shown) [H1333, 4-(3-(1-(2,3-dichlorophenyl)ethyl)ureido)-N-(2-methyl-1,2,3,4-tetrahydroisoquinolin-6-yl)benzenesulfonamide] the fraction unbound [1] was 0.0006, the fraction unbound [2] was 0.0011 and the EC50 [3, 16] was > 30 µM. The EC50 [4, 17] was 1.3 nM, the fraction unbound [5] was 0.0015 and the “PK F” value [6] was 2.08%. The “PK CL p.o.” value ([6]; p.o.) was 84.3 L/h/kg, the “PK Vd p.o.” value ([6]; p.o.) was 170 L/kg and the Vd ([6]; iv, 5 mg/kg) was 3.26 L/kg. The clearance ([6]; iv, 5 mg/kg, i.v.) was 29.7 mL/min/kg, the half-life [6, 18] was 76.2 min and the half-life [6, 19] was 84 min. The “Metabolic Stability Study M = mouse” value [7] was 54 µL/min/mg, the “Metabolic Stability Study H = human” value [8] was 47.2 µL/min/mg and the fraction unbound [9] was 0.001. For the same molecule, the IC50 ([10]; HEK293/GHSR1a, ghrelin 10 nM, read-out: Activity IC50 (ghrelin antagonist potency)) was 2.24 nM.

In the case of `COc1cc(S(=O)(=O)Cc2ccc3c(c2)CCNC3)ccc1NC(=O)NC(C)c1cccc(Cl)c1Cl.Cl` (stereo not shown) [H1415, 1-(1-(2,3-dichlorophenyl)ethyl)-3-(2-methoxy-4-(((1,2,3,4-tetrahydroisoquinolin-6-yl)methyl)sulfonyl)phenyl)urea], the “Metabolic Stability Study R = rat” value [11] is reported as 28.3 µL/min/mg, the fraction unbound [1] is reported as 0.0007 and the fraction unbound [2] is reported as 0.0015. For the same molecule, the EC50 [3, 16] was > 30 µM, the EC50 [4, 17] was 0.573 nM and 0.4 nM and the clearance ([12]; plasma, iv, 5 mg/kg, i.v., read-out: PK CL i.v. (R)) was 35.3 mL/min/kg. For the same molecule, the Vd ([12]; plasma, iv, 5 mg/kg, i.v., read-out: PK Vd i.v. (R)) was 39.7 L/kg, the half-life ([12]; plasma, iv, 5 mg/kg, i.v., read-out: PK t1/2 i.v. (R)) was 778 min and the “PK F (R)” value [12] was 8.9%. The “PK CL i.p. (R)” value ([12]; i.p.) was 2.76 L/h/kg, the “PK Vd i.p. (R)” value ([12]; i.p.) was 61.91 L/kg and the “PK t1/2 i.p. (R)” value ([12]; i.p.) was 17/23. The “PK F” value [6] was 1.12%, the “PK CL p.o.” value ([6]; p.o.) was 74.5 L/h/kg and the “PK Vd p.o.” value ([6]; p.o.) was 326.9 L/kg. It also gave a Vd ([6]; iv, 5 mg/kg) of 1.72 L/kg, a clearance ([6]; iv, 5 mg/kg, i.v.) of 17.2 mL/min/kg and a half-life [6, 18] of 69.6 min. For the same molecule, the half-life [6, 19] was 182 min, the “Metabolic Stability Study M = mouse” value [7] was 12.8 µL/min/mg and the “Metabolic Stability Study H = human” value [8] was < 10 µL/min/mg. For the same molecule, the fraction unbound [9] was 0.0023 and the “Metabolic Stability Study D = dog” value [13] was 10.5 µL/min/mg.

For `CC(NC(=O)Nc1ccc(S(=O)(=O)Cc2ccc3c(c2)CNC3)cc1C(=O)O)c1ccccc1.Cl` (stereo not shown) [H1486, 5-((isoindolin-5-ylmethyl)sulfonyl)-2-(3-(1-phenylethyl)ureido)benzoic acid], the fraction unbound [14] was 0.0265, the EC50 [3, 20] was > 30 µM and the fraction unbound [15] was 0.0519. The EC50 [4, 21] was 4.9 nM, the “Metabolic Stability Study M = mouse” value [7] was “H = <10 M = <10 μL/min/mg” and the “Metabolic Stability Study H = human” value [8] was “H = <10 M = <10 μL/min/mg”. The IC50 [10, 22] was 9.21 nM.

With `COc1cc(S(=O)(=O)Cc2ccc3c(c2)CCNC3)ccc1NC(=O)N(O)C(C)c1cccc(Cl)c1Cl` (stereo not shown) [H1497, 1-(1-(2,3-dichlorophenyl)ethyl)-1-hydroxy-3-(2-methoxy-4-(((1,2,3,4-tetrahydroisoquinolin-6-yl)methyl)sulfonyl)phenyl)urea] the fraction unbound [14] was 0.002, the EC50 [3, 20] was > 30 µM and the fraction unbound [15] was 0.0016. For the same molecule, the EC50 [4, 21] was 3.3 nM, the “Metabolic Stability Study H = human” value [8] was “H = <10 μL/min/mg” and the IC50 [10, 22] was 2.81 nM.

For `COc1cc(S(=O)(=O)Cc2ccc3c(c2)CCNC3)ccc1NC(=O)N(O)C(C)c1ccccc1` (stereo not shown) [H1498, 1-hydroxy-3-(2-methoxy-4-(((1,2,3,4-tetrahydroisoquinolin-6-yl)methyl)sulfonyl)phenyl)-1-(1-phenylethyl)urea], the fraction unbound [14] was 0.0294, the EC50 [3, 20] was > 30 µM and the fraction unbound [15] was 0.0123. For the same molecule, the EC50 [4, 21] was 7.2 nM, the “Metabolic Stability Study H = human” value [8] was “H = 9.9 μL/min/mg” and the IC50 [10, 22] was 24.8 nM.
